Literature values, collected in patent publication US5541094A, “Glyoxylic acid/aminomethylphosphonic acid mixtures prepared using a microbial transformant” (E. I. du Pont de Nemours and Company, priority 1994, dated 1996).

Test system: glycolate oxidase
Conditions: 100 mM; enzyme extracted from tobacco leaves

O=C(O)C(=O)O [Oxalic acid]
inhibition of the catalytic action of the glycolate oxidase: inhibit the catalytic action of the glycolate oxidase
